Source: patent US4370489A, “Herbicidal compounds” (Hoechst Aktiengesellschaft, priority 1976, dated 1983)

How the values were obtained:
Lolium [1] = assay: Pre-emergence greenhouse pot trial, Lolium (Example V, Table V); format: in vivo
Experimental: (§1) The results and also the results of all following examples were evaluated 4 weeks later according to the following scheme:
(§2) In a greenhouse the compounds to be tested were sprayed on the surface of the soil directly after sowing. […] Dicotyledonous crop plants (the same as used in Example I) were not damaged by the applied amounts.
(§3) Effect on weed grasses in a pre-emergence process (evalua-
(§4) tion scheme) experiment in pots in the greenhouse.

spring wheat [2] = assay: Post-emergence trial in two stages, pots on a site without roof, spring wheat (Example II, Table II); format: in vivo
Experimental: as §1
(§5) The amounts of active compound required for a 90% effect, determined by the probit method (cf. Bliss, Annals of Applied Biology, 22 1935), show very distincly the difference between the compound of the invention and the comparative compound. […] None of the compounds did any harm to the wheat.
(§6) Post-emergence treatment in two different stages of development
(§7) Experiments in pots on a site without roof
(§8) stage 1: 3 to 4 leaves with beginning growth of side
(§9) stage 2: main tillering to terminated tillering.

spring barley = assay: Post-emergence treatment, pots on a site without roof, spring barley (Example IV, Table IV); format: in vivo; settings: emulsion concentrate; note: ranges in brackets are in %
Experimental: as §1
(§10) In summer a further experiment was carried through under similar conditions to compare the effect of compound 1a with that of comparative compound A. Both compounds were used in the form of an emulsion concentrate (Table IV).
(§11) Post-emergence treatment (evaluation scheme); experiment
(§12) in pots on a site without roof

wild oat [3] = assay: Post-emergence trial in the greenhouse, wild oat (Example VII, Table VII); format: in vivo; settings: 31 kg/hectare, emulsion concentrate, 4 weeks after treatment
Experimental: as §1
In a greenhouse some of the compounds of the invention were sprayed on plants of wild oat, the compounds being used as emulsion concentrates.
Post-emergence trial in the greenhouse
Effect on wild oat 4 weeks after treatment
Dose 31 kg/hectare of active compound (as emulsion

Setaria [4] = assay: Post-emergence greenhouse pot trial, Setaria (Example I, Table I); format: in vivo; settings: greenhouse pots, 4 weeks
Experimental: (§13) Seeds of weed grasses were sown in pots filled with loamy soil and placed in the greenhouse for germination and emergence. As soon as the plants had developed 3 or 4 leaves, they were sprayed with wettable powder formulations, suspended in water, of compounds according to the invention.
as §1
(§14) 4 is still considered an acceptable herbicidal effect in weeds and a satisfactory preserving effect in crop plants (cf. Bolle, Nachrichtenblatt des Deutschen Pflanzenschutzdienstes 16, 1964, pages 92-94).
(§15) Effect on weed grasses in a post-emergence trial in pots
(§16) in the greenhouse (Evaluation scheme)

Avena fatua [5] = assay: Post emergence treatment in two stages, boxes on a site without roof, wild oat (Table III); format: in vivo; settings: 0.9 kg/hectare
Experimental: as §1
(§17) Effect on wild oat and sugar beet
(§18) Post emergence treatment in two stages of development
(§19) boxes 20 × 24 × 22 cm in size on a site without roof

wild oat [6] = assay: Field trial in wild oat, post-emergence treatment (Example VI, Table VI); format: in vivo; settings: for efficiency in % (counting of panicles) / evaluation 5 weeks after treatment: post-emergence
Experimental: In a field trial compound 1a of the invention was sprayed in the form of a 36% wettable powder formulation onto wild oat (single system, natural growth) after the plants had developed 3 or 4 leaves.
Three lots each were treated with different concentrations of the active compound and the comparative compound, the amount of spray liquor applied being 600 liters per hectare. Besides the usual visual evaluation at the end of the trial, the number of panicles per square meter was counted. In the untreated lots 400 to 500 panicles were counted per square meter, i.e. the field was heavily infected.
The relations are still more distinct when the amount of active compound required for a 90% effect is determined by the probit method (graphical evaluation) mentioned in Example II.

spring wheat [7] = assay: Post-emergence treatment, pots on a site without roof, spring wheat (Example IV, Table IV); format: in vivo; settings: emulsion concentrate; note: ranges in brackets are in %
Experimental: as §1, §10, §11, §12

Echinochloa [8] = assay: Pre-emergence greenhouse pot trial, Echinochloa (Example V, Table V); format: in vivo
Experimental: as §1, §2, §3, §4

Alopecurus myos. = assay: Post-emergence treatment, pots on a site without roof, blackgrass (Example IV, Table IV); format: in vivo, annual black-grass (Alopecurus); settings: for Effect (evaluation scheme), Alopecurus myos.: post-emergence, emulsion concentrate
Experimental: as §1, §10, §11, §12

weed grasses = assay: Pre-emergence greenhouse pot trial, weed grasses overall (Example V); format: in vivo; settings: in words
Experimental: as §1, §2, §3, §4

Lolium [9] = assay: Post-emergence greenhouse pot trial, Lolium (Example I, Table I); format: in vivo; settings: greenhouse pots, 4 weeks
Experimental: as §13, §1, §14, §15, §16

sugar beet = assay: Post emergence treatment in two stages, boxes on a site without roof, sugar beet (Table III); format: in vivo; settings: 0.9 kg/hectare
Experimental: as §1, §17, §18, §19

Avena fatua [10] = assay: Post-emergence treatment, pots on a site without roof, Avena fatua (Example IV, Table IV); format: in vivo; settings: for Effect (evaluation scheme), Avena fatua: post-emergence, emulsion concentrate
Experimental: as §1, §10, §11, §12

Avena fatua [11] = assay: Post-emergence trial in two stages, pots on a site without roof, wild oat (Example II, Table II); format: in vivo; settings: for 90% effective dose: probit method; for Effect on wild oat (evaluation), Avena fatua: post-emergence
Experimental: as §1, §5, §6, §7, §8, §9

Digitaria [12] = assay: Pre-emergence greenhouse pot trial, Digitaria (Example V, Table V); format: in vivo
Experimental: as §1, §2, §3, §4

Setaria [13] = assay: Pre-emergence greenhouse pot trial, Setaria (Example V, Table V); format: in vivo
Experimental: as §1, §2, §3, §4

Echinochloa [14] = assay: Post-emergence greenhouse pot trial, Echinochloa (Example I, Table I); format: in vivo; settings: greenhouse pots, 4 weeks
Experimental: as §13, §1, §14, §15, §16

Avena ludoviciana = assay: Post-emergence treatment, pots on a site without roof, Avena ludoviciana (Example IV, Table IV); format: in vivo; settings: for Effect (evaluation scheme), Avena ludoviciana: post-emergence, emulsion concentrate
Experimental: as §1, §10, §11, §12

Digitaria [15] = assay: Post-emergence greenhouse pot trial, Digitaria (Example I, Table I); format: in vivo; settings: greenhouse pots, 4 weeks
Experimental: as §13, §1, §14, §15, §16

Alopecurus = assay: Post-emergence greenhouse pot trial, annual blackgrass (Example I, Table I); format: in vivo, annual blackgrass (Alopecurus); settings: greenhouse pots, 4 weeks
Experimental: as §13, §1, §14, §15, §16

evaluation, spring wheat (spring wheat [2]; stage 1, 0.112 kg/hectare): 1 (0)
evaluation, spring wheat (spring wheat [2]; stage 1, 0.225 kg/hectare): 1 (0)
evaluation, spring wheat (spring wheat [2]; stage 1, 0.45 kg/hectare): 1 (0)
evaluation, spring wheat (spring wheat [2]; stage 1, 0.9 kg/hectare): 2 (0 to 2.5)
evaluation, spring wheat (spring wheat [2]; stage 2, 0.112 kg/hectare): 1 (0)
evaluation, spring wheat (spring wheat [2]; stage 2, 0.225 kg/hectare): 1 (0)
evaluation, spring wheat (spring wheat [2]; stage 2, 0.45 kg/hectare): 1 (0)
evaluation, spring wheat (spring wheat [2]; stage 2, 0.9 kg/hectare): 2 (0 to 2.5)
evaluation scheme, spring barley (spring barley; 0.225 kg/hectare): 1 (0)
evaluation scheme, spring barley (spring barley; 0.45 kg/hectare): 1 (0)
evaluation scheme, spring barley (spring barley; 0.9 kg/hectare): 1 (0)
evaluation scheme, spring wheat (spring wheat [7]; 0.225 kg/hectare): 1 (0)
evaluation scheme, spring wheat (spring wheat [7]; 0.45 kg/hectare): 1 (0)
evaluation scheme, spring wheat (spring wheat [7]; 0.9 kg/hectare): 1 (0)
sugar beet number (sugar beet; 2-leaf stage): 2 (0 to 2.5)
sugar beet number (sugar beet; 4-leaf stage): 2 (0 to 2.5)
Structure (SMILES): COC(=O)C(C)Oc1ccc(Oc2ccc(Br)cc2Cl)cc1 (stereo not drawn) [Compound 1a, Methyl-4-(2'-chloro-4'-bromophenoxy)-α-phenoxy-propionate]
Effect on weed grasses (evaluation scheme), Lolium (Lolium [1]; 0.62 kg/hectare): 6 (75.0 to <85.0)
Effect on weed grasses (evaluation scheme), Lolium (Lolium [1]; 1.25 kg/hectare): 3 (95.0 to <.97.5)
effect (number) on wild oat (wild oat [3]): 1 (100)
Effect on weed grasses (evaluation scheme number), Setaria (Setaria [4]; 0.15 kg/hectare): 2 (97.5 to <100)
Effect on weed grasses (evaluation scheme number), Setaria (Setaria [4]; 0.62 kg/hectare): 1 (100)
Effect on weed grasses (evaluation scheme number), Setaria (Setaria [4]; 2.5 kg/hectare): 1 (100)
Effect on wild oat, Avena fatua, number (Avena fatua [5]; 3-leaf stage): 1 (100)
degree of damage % (evaluation by weight), Avena fatua (Avena fatua [5]; 3-leaf stage): 100%
Effect on wild oat, Avena fatua, number (Avena fatua [5]; start of tillering): 3 to 4
degree of damage % (evaluation by weight), Avena fatua (Avena fatua [5]; start of tillering): 96%
efficiency in % (counting of panicles) (wild oat [6]; 0.54 kg/hectare): 79.0%
evaluation 5 weeks after treatment (wild oat [6]; 0.54 kg/hectare): 7 (65.0 to <75.0)
efficiency in % (counting of panicles) (wild oat [6]; 0.72 kg/hectare): 90.0%
evaluation 5 weeks after treatment (wild oat [6]; 0.72 kg/hectare): 5 (85.0 to <90.0)
efficiency in % (counting of panicles) (wild oat [6]; 0.90 kg/hectare): 97.4%
evaluation 5 weeks after treatment (wild oat [6]; 0.90 kg/hectare): 3 (95.0 to <.97.5)
amount sufficient compared with the comparative compound (90% effect) (wild oat [6]; probit method): about 1/4
amount of active compound required for a 90% effect (wild oat [6]; without wetting agent, probit method (graphical evaluation)): 0.68 kg/hectare
Effect on weed grasses (evaluation scheme), Echinochloa (Echinochloa [8]; 0.62 kg/hectare): 3 (95.0 to <.97.5)
Effect on weed grasses (evaluation scheme), Echinochloa (Echinochloa [8]; 1.25 kg/hectare): 2 (97.5 to <100)
Effect (evaluation scheme), Alopecurus myos. (Alopecurus myos.; 0.225 kg/hectare): 5 (85.0 to <90.0)
Effect (evaluation scheme), Alopecurus myos. (Alopecurus myos.; 0.45 kg/hectare): 3 (95.0 to <.97.5)
Effect (evaluation scheme), Alopecurus myos. (Alopecurus myos.; 0.9 kg/hectare): 1 (100)
response of annual black-grass (Alopecurus) (Alopecurus myos.; in words): responded very well
effect in pre-emergence treatment compared with comparative compound A (weed grasses): better effect
Effect on weed grasses (evaluation scheme number), Lolium (Lolium [9]; 0.15 kg/hectare): 5 (85.0 to <90.0)
Effect on weed grasses (evaluation scheme number), Lolium (Lolium [9]; 0.62 kg/hectare): 3 (95.0 to <.97.5)
Effect on weed grasses (evaluation scheme number), Lolium (Lolium [9]; 2.5 kg/hectare): 2 (97.5 to <100)
Effect (evaluation scheme), Avena fatua (Avena fatua [10]; 0.225 kg/hectare): 7 (65.0 to <75.0)
Effect (evaluation scheme), Avena fatua (Avena fatua [10]; 0.45 kg/hectare): 6 (75.0 to <85.0)
Effect (evaluation scheme), Avena fatua (Avena fatua [10]; 0.9 kg/hectare): 5 (85.0 to <90.0)
effect on Avena fatua compared with comparative compound (Avena fatua [10]; in words): distinctly better effect than the comparative compound
dosage sufficient with respect to the comparative compound (90% effect) (Avena fatua [11]; applied in the second stage): about half the dosage
effect on wild oat compared with compound A (Avena fatua [11]; emulsion concentrate of 36% strength, in words): better effect on wild oat than compound A
90% effective dose (Avena fatua [11]; stage 1 (3 to 4 leaves with beginning growth of side)): 0.34 kg per hectare
Effect on wild oat (evaluation), Avena fatua (Avena fatua [11]; stage 1, 0.112 kg/hectare): 6 (75.0 to <85.0)
Effect on wild oat (evaluation), Avena fatua (Avena fatua [11]; stage 1, 0.225 kg/hectare): 5 (85.0 to <90.0)
Effect on wild oat (evaluation), Avena fatua (Avena fatua [11]; stage 1, 0.45 kg/hectare): 4 (90.0 to <95.0)
Effect on wild oat (evaluation), Avena fatua (Avena fatua [11]; stage 1, 0.9 kg/hectare): 3 (95.0 to <.97.5)
90% effective dose (Avena fatua [11]; stage 2 (main tillering to terminated tillering)): 0.45 kg per hectare
Effect on wild oat (evaluation), Avena fatua (Avena fatua [11]; stage 2, 0.112 kg/hectare): 7 (65.0 to <75.0)
Effect on wild oat (evaluation), Avena fatua (Avena fatua [11]; stage 2, 0.225 kg/hectare): 6 (75.0 to <85.0)
Effect on wild oat (evaluation), Avena fatua (Avena fatua [11]; stage 2, 0.45 kg/hectare): 4 (90.0 to <95.0)
Effect on wild oat (evaluation), Avena fatua (Avena fatua [11]; stage 2, 0.9 kg/hectare): 3 (95.0 to <.97.5)
Effect on weed grasses (evaluation scheme), Digitaria (Digitaria [12]; 0.62 kg/hectare): 4 (90.0 to <95.0)
Effect on weed grasses (evaluation scheme), Digitaria (Digitaria [12]; 1.25 kg/hectare): 2 (97.5 to <100)
Effect on weed grasses (evaluation scheme), Setaria (Setaria [13]; 0.62 kg/hectare): 6 (75.0 to <85.0)
Effect on weed grasses (evaluation scheme), Setaria (Setaria [13]; 1.25 kg/hectare): 4 (90.0 to <95.0)
Effect on weed grasses (evaluation scheme number), Echinochloa (Echinochloa [14]; 0.15 kg/hectare): 2 (97.5 to <100)
Effect on weed grasses (evaluation scheme number), Echinochloa (Echinochloa [14]; 0.62 kg/hectare): 2 (97.5 to <100)
Effect on weed grasses (evaluation scheme number), Echinochloa (Echinochloa [14]; 2.5 kg/hectare): 1 (100)
Effect (evaluation scheme), Avena ludoviciana (Avena ludoviciana; 0.225 kg/hectare): 6 (75.0 to <85.0)
Effect (evaluation scheme), Avena ludoviciana (Avena ludoviciana; 0.45 kg/hectare): 5 (85.0 to <90.0)
Effect (evaluation scheme), Avena ludoviciana (Avena ludoviciana; 0.9 kg/hectare): 4 (90.0 to <95.0)
effect on Avena ludoviciana compared with comparative compound (Avena ludoviciana; in words): distinctly better effect than the comparative compound
Effect on weed grasses (evaluation scheme number), Digitaria (Digitaria [15]; 0.15 kg/hectare): 6 (75.0 to <85.0)
Effect on weed grasses (evaluation scheme number), Digitaria (Digitaria [15]; 0.62 kg/hectare): 1 (100)
Effect on weed grasses (evaluation scheme number), Digitaria (Digitaria [15]; 2.5 kg/hectare): 1 (100)
Effect on weed grasses (evaluation scheme number), Alopecurus (Alopecurus; 0.15 kg/hectare): 3 (95.0 to <.97.5)
Effect on weed grasses (evaluation scheme number), Alopecurus (Alopecurus; 0.62 kg/hectare): 1 (100)
Effect on weed grasses (evaluation scheme number), Alopecurus (Alopecurus; 2.5 kg/hectare): 1 (100)
